Experiment: xn = mol fraction of the nth substance listed
Details: 101 kPa, Liquid; for mass density: Pycnometric method

OCC(O)CO [glycerol] + OCCO
Details	mass density, 323.15 K [kg/m3]	mass density, 328.15 K [kg/m3]	mass density, 333.15 K [kg/m3]	mass density, 338.15 K [kg/m3]	viscosity, 318.15 K [mPa·s]	viscosity, 323.15 K [mPa·s]	viscosity, 328.15 K [mPa·s]	viscosity, 333.15 K [mPa·s]	viscosity, 338.15 K [mPa·s]
x1 = 0.1001	1113.4	1109.4	1106	1102.8	11.7	9.65	8.31	7.06	6.1
x1 = 0.2002	1131.8	1128	1124.6	1121.4	16.1	13.1	11	9.17	7.81
x1 = 0.3001	1148.7	1145.1	1141.8	1138.6	21.7	17.9	14.6	12.4	10.5
x1 = 0.4002	1165.2	1161.7	1158.4	1155.1	30.6	24.4	20.1	16.4	13.8
x1 = 0.4991	1180.1	1176.7	1173.5	1170.2	41.1	33.6	26.5	21.5	18.1
x1 = 0.6011	1194.6	1191.4	1188.2	1185	57.3	45.3	36	28.4	23.5
x1 = 0.7015	1207.9	1204.7	1201.5	1198.3	81	62	48.1	37.6	30.7
x1 = 0.7981	1219.9	1216.9	1213.8	1210.6	108.2	82.4	64.4	49.4	39.5
x1 = 0.8961	1231.2	1228.3	1225.3	1222.2	148.4	111	84.6	66.2	50.9
x1 = 1	1242.3	1239.3	1236.1	1232.8	185.8	151.2	108.4	84.8	62.2

Source: the NIST ThermoML archive (doi:10.1021/je900938b)
